The source of these data is US20240327412A1, “FACTOR XIIA INHIBITORS” (KALVISTA PHARMACEUTICALS LIMITED, priority 2021, published 2024).

What is called IC50 is the concentration that gives 50% inhibition. By half-life is commonly meant the time needed for the level to fall by half in the phase considered. Lower therefore signals rapid decline. What is called bioavailability is the share of a dose that reaches the circulation, judged against a reference dose that is usually intravenous.

One data set deals with T1, Plasma Kallikrein (Homo sapiens, UniProt P03952).
T1 construct: FXIIa converts plasma prekallikrein (PK) to plasma kallikrein (PKa)
As to the kind of experiment: Related protease inhibition: Plasma Kallikrein (fluorogenic substrate at Km). Particulars: class symbols per Table 18, read-out: IC50 (human PKal). The format is biochemical. The gist of the method:
(§1)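 Percent activity is derived from the linear fluorescence increase per minute, measured over 5 min at 25° C. IC50 marks 50% inhibition of uninhibited activity.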

For another data set, the target named is FXa (Homo sapiens, UniProt P00742). As to the kind of experiment: Related protease inhibition: FXa (fluorogenic substrate at Km). The format is biochemical. Particulars: class symbols per Table 18. The procedure, abridged:
(§2)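 Read-out is the linear per-minute rise in fluorescence liberated from substrate, monitored for 5 min at 25° C and expressed as % activity. Substrate sat at Km, except for FXIa, which used 100 μM. IC50 values come from the concentration producing half-maximal inhibition.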

The target in a further data set is T2, Human Factor XIIa (Homo sapiens, UniProt P00748).
T2 construct: Proteolytic cleavage of FXII to heavy and light chains of FXIIa dramatically increases catalytic activity; purchased Enzyme Research Laboratories
T2 sequence (P00748 373-615 limits assumed): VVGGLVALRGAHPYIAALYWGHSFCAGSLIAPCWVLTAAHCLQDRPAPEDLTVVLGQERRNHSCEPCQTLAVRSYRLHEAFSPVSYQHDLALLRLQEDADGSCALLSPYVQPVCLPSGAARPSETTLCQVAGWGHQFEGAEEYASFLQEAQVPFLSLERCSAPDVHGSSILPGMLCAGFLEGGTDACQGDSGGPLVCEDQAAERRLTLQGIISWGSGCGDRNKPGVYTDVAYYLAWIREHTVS
T2 sequence (P00748 20-372 partner limits assumed): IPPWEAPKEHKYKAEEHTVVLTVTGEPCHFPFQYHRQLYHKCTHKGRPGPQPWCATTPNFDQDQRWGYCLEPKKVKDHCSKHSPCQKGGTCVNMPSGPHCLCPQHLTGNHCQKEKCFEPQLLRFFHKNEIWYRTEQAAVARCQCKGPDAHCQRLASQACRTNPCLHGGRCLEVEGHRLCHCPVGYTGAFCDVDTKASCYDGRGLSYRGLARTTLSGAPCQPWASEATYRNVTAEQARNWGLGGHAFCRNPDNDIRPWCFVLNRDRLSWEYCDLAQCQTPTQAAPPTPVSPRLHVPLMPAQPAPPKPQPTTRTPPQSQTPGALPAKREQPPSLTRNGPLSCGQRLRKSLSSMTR
As to the kind of experiment: Determination of FXIIa inhibition (fluorogenic substrate H-DPro-Phe-Arg-AFC, IC50 assay). The format is biochemical. The conditions noted are these: substrate at Km concentration, 25° C.; category scale; read-out: Human FXII IC50 (nm). The gist of the method:
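Human FXIIa incubated at 25° C. with fluorogenic H-DPro-Phe-Arg-AFC at its Km concentration plus varying compound levels. Linear fluorescence increase over 5 min taken as % activity; IC50 is concentration halving uninhibited activity.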

Another data set has as its target KLK1 (Homo sapiens, UniProt P06870). As to the kind of experiment: Related protease inhibition: KLK1 (fluorogenic substrate at Km). It counts as biochemical. The conditions noted are these: class symbols per Table 18. The gist of the method: as §2
The next data set has as its target Thrombin (Homo sapiens, UniProt P00734). As to the kind of experiment: Related protease inhibition: Thrombin (fluorogenic substrate at Km). The format is biochemical. The conditions noted are these: class symbols per Table 18. The procedure, abridged: as §1
The nature of data set [1]: Pharmacokinetics after single intravenous and single oral dose in rats. The format is in vivo. The conditions noted are these: rat, plasma, male Sprague-Dawley rats, single iv (nominal 1 mg/kg) and single po (nominal 5 mg/kg) dose; for half-life: Phoenix WinNonlin; for bioavailability: oral bioavailability, 10% DMSO/10% Cremophor EL/80% SWFI. The protocol:
Pharmacokinetic studies of the compounds in Table 19 were performed to assess the pharmacokinetics following a single intravenous dose and a single oral dose in male Sprague-Dawley rats. Two rats were given a single intravenous dose of 1 mL/kg of a nominal 1 mg/ml (1 mg/kg) composition of test compound in 10% DMSO/10% Cremophor EL/80% SWFI vehicle. Two rats were given a single oral dose of 5 ml/kg of a nominal 1 mg/mL (5 mg/kg) composition of test compound in 10% DMSO/10% Cremophor EL/80% SWFI vehicle.
Following intravenous dosing, blood samples were collected over a period of 12 h. Sample times were 2, 5, 15 and 30 min then 1, 2, 4, 6, and 12 h. Following oral dosing, blood samples were collected over a period of 24 h. Sample times were 5, 15 and 30 min then 1, 2, 4, 6, 8, 12 and 24 h.
Following collection, blood samples were centrifuged and the plasma fraction analysed for concentration of test compound by LCMS. Oral bioavailability and half-life calculations from these studies were obtained using Phoenix WinNonlin (v8.0) and are shown below: […]

Data set [2] concerns patients with type I/II hereditary angioedema (HAE). The conditions noted are these: phase 2, monthly prophylactic subcutaneous treatment; cited from earlier work.
A further data set concerns the target Trypsin (Homo sapiens, UniProt P07477). As to the kind of experiment: Related protease inhibition: Trypsin (fluorogenic substrate at Km). It counts as biochemical. Particulars: class symbols per Table 18. The protocol:
(§3) In vitro inhibition of related proteases was determined using an IC50 assay based on standard literature methods (see e.g. Shori et al., Biochem. Pharmacol., 1992, 43, 1209; Bouckaert et al., European Journal of Medicinal Chemistry 110 (2016) 181). Human serine protease enzyme Plasma Kallikrein, KLK1, FXa, Plasmin, Thrombin and Trypsin were assayed for enzymatic activity using an appropriate fluorogenic substrate at Km concentration, FXIa at fixed substrate concentration of 100 μM and various concentrations of the test compound. Protease activity was measured by monitoring the accumulation of liberated fluorescence from the substrate over 5 min at 25° C. The linear rate of fluorescence increase per minute was expressed as percentage (%) activity. IC50 values were calculated as the concentration of inhibitor giving 50% inhibition of the uninhibited enzyme activity (100%).

A further data set addresses Plasmin (Homo sapiens, UniProt P00747). As to the kind of experiment: Related protease inhibition: Plasmin (fluorogenic substrate at Km). The format is biochemical. Particulars: class symbols per Table 18. The protocol: as §3
Another data set addresses FXIa (Homo sapiens, UniProt P03951). As to the kind of experiment: Related protease inhibition: FXIa (fixed substrate concentration of 100 μM). The format is biochemical. Particulars: class symbols per Table 18. The procedure: as §3

T1 sequence (P03952 391-638 limits assumed): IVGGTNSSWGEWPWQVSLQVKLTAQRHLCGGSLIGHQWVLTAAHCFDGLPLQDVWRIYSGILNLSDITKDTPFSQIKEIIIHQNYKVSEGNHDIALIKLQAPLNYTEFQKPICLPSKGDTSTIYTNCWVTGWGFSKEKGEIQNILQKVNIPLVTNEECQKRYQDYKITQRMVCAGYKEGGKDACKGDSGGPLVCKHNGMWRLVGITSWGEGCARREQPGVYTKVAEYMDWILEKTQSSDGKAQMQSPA
T1 sequence (P03952 20-390 partner limits assumed): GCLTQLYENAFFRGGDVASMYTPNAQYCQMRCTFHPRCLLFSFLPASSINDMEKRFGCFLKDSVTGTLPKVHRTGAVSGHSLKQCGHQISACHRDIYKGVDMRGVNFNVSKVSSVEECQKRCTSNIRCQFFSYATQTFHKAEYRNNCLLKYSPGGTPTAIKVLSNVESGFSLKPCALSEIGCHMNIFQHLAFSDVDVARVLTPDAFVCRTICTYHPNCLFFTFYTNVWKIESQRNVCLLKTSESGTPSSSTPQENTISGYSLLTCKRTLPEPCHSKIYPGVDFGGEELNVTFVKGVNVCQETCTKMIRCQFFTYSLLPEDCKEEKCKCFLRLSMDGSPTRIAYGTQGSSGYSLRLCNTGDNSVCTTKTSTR
Chain of FXa (P00742 235-488 limits assumed): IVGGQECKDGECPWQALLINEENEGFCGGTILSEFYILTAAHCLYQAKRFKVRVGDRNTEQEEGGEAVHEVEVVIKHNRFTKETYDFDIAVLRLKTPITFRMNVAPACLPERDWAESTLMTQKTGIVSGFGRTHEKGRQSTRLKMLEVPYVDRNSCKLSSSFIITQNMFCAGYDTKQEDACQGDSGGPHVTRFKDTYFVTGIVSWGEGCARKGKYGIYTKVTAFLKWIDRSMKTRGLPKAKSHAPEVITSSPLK
Chain of FXa (P00742 41-179 partner limits assumed): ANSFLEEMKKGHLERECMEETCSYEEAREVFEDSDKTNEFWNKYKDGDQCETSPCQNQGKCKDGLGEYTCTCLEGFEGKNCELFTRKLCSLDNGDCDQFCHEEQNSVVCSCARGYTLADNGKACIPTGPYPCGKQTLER
Chain of KLK1 (P06870 25-262): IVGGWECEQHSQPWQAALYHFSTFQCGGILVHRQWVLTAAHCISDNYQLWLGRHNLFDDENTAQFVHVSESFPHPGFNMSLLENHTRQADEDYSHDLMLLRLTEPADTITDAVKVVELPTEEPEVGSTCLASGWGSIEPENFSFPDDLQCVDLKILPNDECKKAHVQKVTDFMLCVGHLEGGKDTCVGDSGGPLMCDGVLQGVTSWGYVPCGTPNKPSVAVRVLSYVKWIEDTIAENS
Chain of Plasmin (P00747 581-810 limits assumed): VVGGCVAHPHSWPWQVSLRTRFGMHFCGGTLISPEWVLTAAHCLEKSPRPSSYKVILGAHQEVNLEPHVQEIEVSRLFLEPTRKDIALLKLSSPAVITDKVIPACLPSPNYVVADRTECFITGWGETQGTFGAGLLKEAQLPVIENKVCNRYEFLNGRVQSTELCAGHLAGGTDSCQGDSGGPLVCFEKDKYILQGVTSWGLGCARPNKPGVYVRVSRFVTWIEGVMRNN
Chain of Plasmin (P00747 97-580 partner limits assumed): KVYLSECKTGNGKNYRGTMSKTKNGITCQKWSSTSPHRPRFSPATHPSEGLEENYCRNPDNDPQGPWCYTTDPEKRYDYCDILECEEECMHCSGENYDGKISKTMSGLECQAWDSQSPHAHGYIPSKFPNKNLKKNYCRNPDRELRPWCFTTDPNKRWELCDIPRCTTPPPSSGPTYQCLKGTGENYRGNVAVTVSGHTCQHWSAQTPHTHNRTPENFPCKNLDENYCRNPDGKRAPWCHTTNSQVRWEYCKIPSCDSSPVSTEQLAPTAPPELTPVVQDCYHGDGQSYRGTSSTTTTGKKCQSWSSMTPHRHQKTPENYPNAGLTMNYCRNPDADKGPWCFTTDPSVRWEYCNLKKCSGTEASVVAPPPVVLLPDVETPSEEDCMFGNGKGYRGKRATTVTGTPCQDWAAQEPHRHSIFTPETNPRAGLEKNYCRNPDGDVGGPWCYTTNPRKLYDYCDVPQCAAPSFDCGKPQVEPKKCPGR
Chain of FXIa (P03951 388-625 limits assumed): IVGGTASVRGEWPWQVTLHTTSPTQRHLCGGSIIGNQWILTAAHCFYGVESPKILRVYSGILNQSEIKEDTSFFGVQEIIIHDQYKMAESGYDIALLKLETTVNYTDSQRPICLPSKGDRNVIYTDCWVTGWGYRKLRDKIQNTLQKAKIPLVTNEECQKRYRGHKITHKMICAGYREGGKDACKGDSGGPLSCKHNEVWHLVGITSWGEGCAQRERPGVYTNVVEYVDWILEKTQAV
Chain of FXIa (P03951 19-387 partner limits assumed): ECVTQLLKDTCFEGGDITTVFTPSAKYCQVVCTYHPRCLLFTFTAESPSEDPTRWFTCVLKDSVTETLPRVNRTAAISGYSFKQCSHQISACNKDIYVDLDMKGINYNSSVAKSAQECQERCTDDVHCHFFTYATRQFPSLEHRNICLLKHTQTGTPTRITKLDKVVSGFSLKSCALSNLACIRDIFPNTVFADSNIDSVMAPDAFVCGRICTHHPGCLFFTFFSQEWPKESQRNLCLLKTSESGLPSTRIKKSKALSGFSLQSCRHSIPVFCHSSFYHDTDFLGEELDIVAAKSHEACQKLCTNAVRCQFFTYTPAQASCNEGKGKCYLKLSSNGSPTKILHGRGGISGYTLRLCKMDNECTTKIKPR

As for `Cn1ccc(OCC23CN(C(=O)OCc4ccccc4)C(CNc4cccc5c(N)nccc45)(C2)C3)cc1=O` [Example 12001, benzyl 1-(((1-aminoisoquinolin-5-yl)amino)methyl)-4-(((1-methyl-2-oxo-1,2-dihydropyridin-4-yl)oxy)methyl)-2-azabicyclo[2.1.1]hexane-2-carboxylate], the IC50 at Plasma Kallikrein was greater than 40 µM; at FXa it was greater than 40 µM; on Human Factor XIIa, 0.01 to 0.1 µM; at KLK1, 3 to 10 µM; against Thrombin, greater than 40 µM. The same molecule showed a half-life in data set [1] of 1.14 h. In data set [1], this molecule gave a bioavailability of 8.2%.
In the case of `Nc1nccc2c(NCC34COC(COc5ccc6nccn6c5)(C3)C4)cccc12` [Example 2022, 5-N-[[1-(Imidazo[1,2-a]pyridin-6-yloxymethyl)-2-oxabicyclo[2.1.1]hexan-4-yl]methyl]isoquinoline-1,5-diamine], the IC50 was greater than 40 µM on Plasma Kallikrein; greater than 40 µM at FXa; 0.1 to 0.3 µM on Human Factor XIIa; 3 to 10 µM against KLK1; greater than 40 µM at Thrombin. In [1], the half-life is 3.13 h. This molecule had a bioavailability in data set [1] of 42.6%.
Take “Garadacimab: "a monoclonal antibody inhibitory against FXIIa"”: in data set [2], the preventing attacks entry is “effective in preventing attacks” and the tolerability entry was “well tolerated”.
Consider `Cn1ccc(OCC23CN(C(=O)CCc4ccccc4)C(CNc4cccc5c(N)nccc45)(C2)C3)cc1=O` [Example 12016, 4-((1-(((1-aminoisoquinolin-5-yl)amino)methyl)-2-(3-phenylpropanoyl)-2-azabicyclo[2.1.1]hexan-4-yl)methoxy)-1-methylpyridin-2(1H)-one], for which the IC50 at Human Factor XIIa fell in the range of 0.01 to 0.1 µM. In data set [1], this molecule showed a half-life of 1.08 h and a bioavailability of 0.4%.
Regarding `Nc1nccc2c(NCC34CC(COc5ccn6ccnc6c5)(CCO3)C4)cccc12` [Example 10901, N5-((5-((Imidazo[1,2-a]pyridin-7-yloxy)methyl)-2-oxabicyclo[3.1.1]heptan-1-yl)methyl)isoquinoline-1,5-diamine], the half-inhibitory concentration (IC50) on Plasma Kallikrein was greater than 40 µM; at FXa it was 10 to 40 µM; on Human Factor XIIa, 0.01 to 0.1 µM; at KLK1, 3 to 10 µM; on Thrombin, 10 to 40 µM. The half-life in data set [1] is 11.9 h. Also, in data set [1], the bioavailability amounted to 9.3%.
`Nc1nccc2c(NCC34COC(COc5ccn6ccnc6c5)(C3)C4)cccc12` [Example 2020, 5-N-[[1-(Imidazo[1,2-a]pyridin-7-yloxymethyl)-2-oxabicyclo[2.1.1]hexan-4-yl]methyl]isoquinoline-1,5-diamine]: the IC50 at Plasma Kallikrein is greater than 40 µM; against FXa, greater than 40 µM; at Human Factor XIIa it was 0.01 to 0.1 µM; against KLK1, 3 to 10 µM; at Thrombin, greater than 40 µM. In [1], this molecule came in with a half-life of 10.5 h. For the same molecule, the bioavailability in data set [1] stood at 19.9%.
`Cc1cnc2ccc(OCC34COC(CNc5cccc6c(N)nccc56)(C3)C4)cn12` [Example 6624, 5-N-[[4-[(3-Methylimidazo[1,2-a]pyridin-6-yl)oxymethyl]-2-oxabicyclo[2.1.1]hexan-1-yl]methyl]isoquinoline-1,5-diamine]: the IC50 on Plasma Kallikrein was 10 to 40 µM; against FXa, 1 to 3 µM; at Human Factor XIIa it was 0.01 to 0.1 µM; against KLK1 it was 1 to 3 µM; against Thrombin, greater than 40 µM; on Trypsin it was 10 to 40 µM. At Plasmin, the IC50 is greater than 40 µM. This molecule displayed a half-life in data set [1] of 6.64 h. Besides, in data set [1], the bioavailability is 14.8%.
For the molecule `Nc1nccc2c(NCC34CC(COc5ccc6nccn6c5)(CO3)C4)cccc12` [Example 6602, 5-N-[[4-(Imidazo[1,2-a]pyridin-6-yloxymethyl)-2-oxabicyclo[2.1.1]hexan-1-yl]methyl]isoquinoline-1,5-diamine], the IC50 at Plasma Kallikrein was greater than 40 µM; on FXa, 10 to 40 µM; at Human Factor XIIa it was 0.01 to 0.1 µM; at KLK1, 3 to 10 µM; on Thrombin, 10 to 40 µM; at Trypsin, greater than 40 µM. This molecule had an IC50 against Plasmin greater than 40 µM. The same molecule came in with a half-life in [1] of 5.7 h. The bioavailability in data set [1] is 33.5%.
For `Nc1nccc2c(NCC34CC(COC5CCn6ccnc6C5)(C3)C4)cccc12` (racemic) [Example 1002, N5-((3-(((5,6,7,8-Tetrahydroimidazo[1,2-a]pyridin-7-yl)oxy)methyl)bicyclo[1.1.1]pentan-1-yl)methyl)isoquinoline-1,5-diamine], the IC50 on Plasma Kallikrein was greater than 40 µM; against FXa, 10 to 40 µM; at Human Factor XIIa, 0.1 to 0.3 µM; at FXIa it was greater than 40 µM; against KLK1, 3 to 10 µM; on Thrombin it was 10 to 40 µM. For the same molecule, the results for the IC50 against Trypsin and against Plasmin were 10 to 40 µM and greater than 40 µM, respectively.
For the molecule `Cn1ccc(OCC23CCOC(CNc4cccc5c(N)nccc45)(C2)C3)cc1=O` [Example 10906, 4-((1-(((1-aminoisoquinolin-5-yl)amino)methyl)-2-oxabicyclo[3.1.1]heptan-5-yl)methoxy)-1-methylpyridin-2(1H)-one], the IC50 on Plasma Kallikrein was greater than 40 µM; against FXa, greater than 40 µM; on Human Factor XIIa, 0.1 to 0.3 µM; at KLK1, 10 to 40 µM; at Thrombin it was greater than 40 µM; on Trypsin, 10 to 40 µM. At Plasmin, this molecule came in with a 50% inhibitory concentration (IC50) greater than 40 µM. The molecule also gave a half-life in data set [1] of 2.55 h. This molecule also came in with a bioavailability in data set [1] of 40.5%.
`Nc1nccc2c(NCC34CC(COC5CCn6ccnc6C5)(C3)C4)cccc12` (single isomer, unassigned) [Example 1002.1, (S*)-N5-((3-(((5,6,7,8-tetrahydroimidazo[1,2-a]pyridin-7-yl)oxy)methyl)bicyclo[1.1.1]pentan-1-yl)methyl)isoquinoline-1,5-diamine]: the IC50 at Plasma Kallikrein is greater than 40 µM; on FXa, 10 to 40 µM; on Human Factor XIIa, 0.1 to 0.3 µM; on KLK1 it was 3 to 10 µM; against Thrombin, 3 to 10 µM. The same molecule had a half-life in [1] of 7.36 h. The bioavailability in data set [1] was found to be 41%.
